Source: PubChem BioAssay (NCI)
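Each compound was tested at five concentrations against cells in 96-well plates for 48 hours. TGI is the concentration that stops growth completely.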 Where a SMILES comes first, the peptide text is derived from it. The star is where a group is joined. Boc = CC(C)(C)OC(=O)*

Assays:
Assay in all cases: NCI anticancer screen, dose series, 48 h
SN12C renal = test system: SN12C renal
NCI-H23 lung = test system: NCI-H23 lung
SK-MEL-2 melanoma = test system: SK-MEL-2 melanoma
OVCAR-3 ovarian = test system: OVCAR-3 ovarian
HOP-92 NSCLC = test system: HOP-92 NSCLC
CCRF-CEM leukemia = test system: CCRF-CEM leukemia
786-0 renal = test system: 786-0 renal
KM20L2 colon = test system: KM20L2 colon
HCT-15 colon = test system: HCT-15 colon
DMS 273 small cell lung = test system: DMS 273 small cell lung
MOLT-4 leukemia = test system: MOLT-4 leukemia
LXFL 529 NSCLC = test system: LXFL 529 NSCLC
OVCAR-8 ovarian = test system: OVCAR-8 ovarian
M14 melanoma = test system: M14 melanoma
HT29 colon = test system: HT29 colon
SK-OV-3 ovarian = test system: SK-OV-3 ovarian
LOX IMVI melanoma = test system: LOX IMVI melanoma
SW-620 colon = test system: SW-620 colon
DMS 114 small cell lung = test system: DMS 114 small cell lung
SNB-75 CNS = test system: SNB-75 CNS
HOP-18 NSCLC = test system: HOP-18 NSCLC
SK-MEL-28 melanoma = test system: SK-MEL-28 melanoma
SF-295 CNS = test system: SF-295 CNS
OVCAR-5 ovarian = test system: OVCAR-5 ovarian
UACC-257 melanoma = test system: UACC-257 melanoma
COLO 205 colon = test system: COLO 205 colon
KM12 colon = test system: KM12 colon
SK-MEL-5 melanoma = test system: SK-MEL-5 melanoma
NCI-H460 lung = test system: NCI-H460 lung
M19-MEL melanoma = test system: M19-MEL melanoma
SF-268 CNS = test system: SF-268 CNS
K-562 leukemia = test system: K-562 leukemia
A549 NSCLC = test system: A549 NSCLC
SNB-19 CNS = test system: SNB-19 CNS
UO-31 renal = test system: UO-31 renal
ACHN renal = test system: ACHN renal
HOP-62 NSCLC = test system: HOP-62 NSCLC
OVCAR-4 ovarian = test system: OVCAR-4 ovarian
HL-60(TB) leukemia = test system: HL-60(TB) leukemia
HCC-2998 colon = test system: HCC-2998 colon
TK-10 renal = test system: TK-10 renal
SF-539 CNS = test system: SF-539 CNS
DLD-1 colon = test system: DLD-1 colon
RXF-631 renal = test system: RXF-631 renal
CAKI-1 renal = test system: CAKI-1 renal
RXF 393 renal = test system: RXF 393 renal
RPMI-8226 leukemia = test system: RPMI-8226 leukemia
IGROV1 ovarian = test system: IGROV1 ovarian
UACC-62 melanoma = test system: UACC-62 melanoma
U251 CNS = test system: U251 CNS
MALME-3M melanoma = test system: MALME-3M melanoma
EKVX NSCLC = test system: EKVX NSCLC
NCI-H522 lung = test system: NCI-H522 lung
A498 renal = test system: A498 renal
XF 498 CNS = test system: XF 498 CNS
NCI-H226 lung = test system: NCI-H226 lung
SNB-78 CNS = test system: SNB-78 CNS
SR leukemia = test system: SR leukemia
HCT-116 colon = test system: HCT-116 colon

Measured: TGI

Cc1cc2c(c3nocc13)C(=O)c1ccccc1C2=O
> 100 µM: SN12C renal | NCI-H23 lung | SK-MEL-2 melanoma | OVCAR-3 ovarian | HOP-92 NSCLC | CCRF-CEM leukemia | 786-0 renal | KM20L2 colon | HCT-15 colon | DMS 273 small cell lung | MOLT-4 leukemia | LXFL 529 NSCLC | OVCAR-8 ovarian | M14 melanoma | HT29 colon | SK-OV-3 ovarian | LOX IMVI melanoma | SW-620 colon | DMS 114 small cell lung | SNB-75 CNS | HOP-18 NSCLC | SK-MEL-28 melanoma | SF-295 CNS | OVCAR-5 ovarian | UACC-257 melanoma | COLO 205 colon | KM12 colon | SK-MEL-5 melanoma | NCI-H460 lung | M19-MEL melanoma | SF-268 CNS | K-562 leukemia | A549 NSCLC | SNB-19 CNS | UO-31 renal | ACHN renal | HOP-62 NSCLC | OVCAR-4 ovarian | HL-60(TB) leukemia | HCC-2998 colon | TK-10 renal | SF-539 CNS | DLD-1 colon | RXF-631 renal | CAKI-1 renal | RXF 393 renal | RPMI-8226 leukemia | IGROV1 ovarian | UACC-62 melanoma | U251 CNS | MALME-3M melanoma | EKVX NSCLC | NCI-H522 lung

CSCCC(NC(=O)C(CC(C)C)NC(=O)C1CCCN1C(=O)C(Cc1ccccc1)NC(=O)C(Cc1ccccc1)NC(=O)C(CCC(=O)O)NC(=O)OC(C)(C)C)C(N)=O (stereo not drawn) (Boc-EFFPLM-NH2; configuration not given here)
> 100 µM: SN12C renal | NCI-H23 lung | SK-MEL-2 melanoma | A498 renal | HOP-92 NSCLC | CCRF-CEM leukemia | 786-0 renal | DMS 273 small cell lung | MOLT-4 leukemia | LXFL 529 NSCLC | M14 melanoma | SK-OV-3 ovarian | LOX IMVI melanoma | DMS 114 small cell lung | SNB-75 CNS | SK-MEL-28 melanoma | XF 498 CNS | COLO 205 colon | NCI-H460 lung | M19-MEL melanoma | SF-268 CNS | K-562 leukemia | UO-31 renal | HOP-62 NSCLC | OVCAR-4 ovarian | NCI-H226 lung | HL-60(TB) leukemia | HCC-2998 colon | SF-539 CNS | DLD-1 colon | RXF-631 renal | SNB-78 CNS | CAKI-1 renal | SR leukemia | RPMI-8226 leukemia | IGROV1 ovarian | UACC-62 melanoma | MALME-3M melanoma | HCT-116 colon | NCI-H522 lung
